Measured values: US20090215884A1, “METHOD FOR WOUND HEALING” (priority 2005, published 2009)

Columns and labels:
neutrophils = experiment: Cytokine production by PEP005-treated human neutrophils; type: cell-based; settings: 6 h, supernatant
Experimental: Cytokine production by PEP005-treated human cells Confluent cultures of Me10538 cells, keratinocytes, fibroblasts and neutrophils were incubated for 6 h in the absence or presence of PEP005 (1-100 ng/ml). The supernatants were harvested and analyzed for the presence of the following cytokines; TNF-α, IL-6 and IL-8 using a multiplex detection kit (Biosource International, Nivelles, Belgium). Units of detected proteins are pg/ml.

MMP-2 = experiment: Gelatin zymography of FPCL conditioned medium; type: cell-based, human; settings: PEP005 0.01-0.1 μg/ml
Text: The ability of dermal fibroblasts to remodel/reorganize their ECM environment in the presence of PEP005 was examined by fibroblast populated collagen lattices (FPCLs), according to Cook et al (2000). Following trypsinization, dermal fibroblasts were suspended in Fibroblast-Serum Containing Medium, containing 10% gelatinase-free, fetal calf serum (prepared using a gelatin-A Sepharose column, GE Healthcare Ltd., Buckinghamshire, U.K.), to remove endogenous MMP-2 and MMP-9 activity. […] The degree of ECM reorganization/lattice contraction was quantified from three separate lattice diameter measurements performed on each of the three replicate samples, at days 1, 2, 3, 4, 5, 6, 7, 10 and 14, after initial fabrication. […]
To determine the relative amounts of pro- and active MMP species produced by the cells in the FPCL systems, gelatin zymography was employed, according to Cook et al (2000). Equal volumes (15 μl) of FPCL conditioned medium were subjected to sodium dodecyl sulphate-polyacrylamide gel electrophoresis (SDS-PAGE), on pre-cast 10% gelatin zymography gels (Ready Gel 10% Gelatin Zymogram Gels, Bio-Rad Laboratories Ltd., Hertfordshire, U.K.), incorporated into a Mini-Protean 3 Gel Electrophoresis System (Bio-Rad Laboratories Ltd.), at 15 mA for 4-5 h. […]

Work on `C/C=C(/C)C(=O)O[C@H]1C(C)=C[C@]23C(=O)[C@@H](C=C(CO)[C@@H](O)[C@]12O)[C@H]1[C@@H](C[C@H]3C)C1(C)C` [PEP005, ingenol-3-angelate] yielded an IL-8 (neutrophils; PEP005 1 ng/ml) of 7089 ± 1293 pg/mL, an IL-8 (neutrophils; PEP005 10 ng/ml) of 2241 ± 684 pg/mL and an IL-8 (neutrophils; PEP005 100 ng/ml) of 617 ± 52 pg/mL. For the same molecule, the “Pro and active MMP-2 levels” value (MMP-2) was “observed to increase”.
